Measured values as given in the NIST ThermoML archive (doi:10.1021/je800876t).
± gives the expanded uncertainty stated by the source.

Assay: molar heat capacity at constant pressure
Conditions: 101.33 kPa, Crystal, Vacuum adiabatic calorimetry

For O=C([O-])c1ccccc1.O=C([O-])c1ccccc1.[Ba+2] [barium benzoate], the “molar heat capacity at constant pressure” value (77.78 K) was 109.64 ± 0.68 J/K/mol, the “molar heat capacity at constant pressure” value (79.5 K) was 111.79 ± 0.7 J/K/mol and the “molar heat capacity at constant pressure” value (82.08 K) was 114.77 ± 0.71 J/K/mol. The “molar heat capacity at constant pressure” value (84.57 K) was 117.57 ± 0.73 J/K/mol, the “molar heat capacity at constant pressure” value (86.98 K) was 119.65 ± 0.74 J/K/mol and the “molar heat capacity at constant pressure” value (89.39 K) was 121.92 ± 0.76 J/K/mol. For the same compound, the “molar heat capacity at constant pressure” value (91.65 K) was 124.31 ± 0.78 J/K/mol, the “molar heat capacity at constant pressure” value (93.86 K) was 126.6 ± 0.79 J/K/mol and the “molar heat capacity at constant pressure” value (96.1 K) was 128.79 ± 0.81 J/K/mol. The “molar heat capacity at constant pressure” value (98.25 K) was 130.89 ± 0.82 J/K/mol, the “molar heat capacity at constant pressure” value (100.3 K) was 132.67 ± 0.83 J/K/mol and the “molar heat capacity at constant pressure” value (102.4 K) was 134.86 ± 0.84 J/K/mol. The “molar heat capacity at constant pressure” value (104.4 K) was 137.21 ± 0.86 J/K/mol, the “molar heat capacity at constant pressure” value (106.5 K) was 139.25 ± 0.87 J/K/mol and the “molar heat capacity at constant pressure” value (108.3 K) was 141.18 ± 0.88 J/K/mol. For the same compound, the “molar heat capacity at constant pressure” value (110.3 K) was 142.99 ± 0.89 J/K/mol, the “molar heat capacity at constant pressure” value (112.2 K) was 144.86 ± 0.9 J/K/mol and the “molar heat capacity at constant pressure” value (114.1 K) was 146.37 ± 0.91 J/K/mol. The “molar heat capacity at constant pressure” value (115.9 K) was 148.24 ± 0.92 J/K/mol, the “molar heat capacity at constant pressure” value (117.8 K) was 150.2 ± 0.93 J/K/mol and the “molar heat capacity at constant pressure” value (119.6 K) was 152.24 ± 0.95 J/K/mol. For the same compound, the “molar heat capacity at constant pressure” value (122.4 K) was 154.37 ± 0.96 J/K/mol, the “molar heat capacity at constant pressure” value (125.9 K) was 157.49 ± 0.98 J/K/mol and the “molar heat capacity at constant pressure” value (128.8 K) was 160.12 ± 0.99 J/K/mol. For the same compound, the “molar heat capacity at constant pressure” value (131.6 K) was 162.83 ± 1 J/K/mol, the “molar heat capacity at constant pressure” value (134.5 K) was 165.78 ± 1 J/K/mol and the “molar heat capacity at constant pressure” value (137.4 K) was 168.03 ± 1 J/K/mol. The “molar heat capacity at constant pressure” value (140.3 K) was 170.89 ± 1.1 J/K/mol, the “molar heat capacity at constant pressure” value (143.1 K) was 173.54 ± 1.1 J/K/mol and the “molar heat capacity at constant pressure” value (146.1 K) was 176.75 ± 1.1 J/K/mol. The “molar heat capacity at constant pressure” value (148.9 K) was 178.82 ± 1.1 J/K/mol, the “molar heat capacity at constant pressure” value (152.8 K) was 182.27 ± 1.1 J/K/mol and the “molar heat capacity at constant pressure” value (154.7 K) was 184.19 ± 1.1 J/K/mol. The “molar heat capacity at constant pressure” value (157.6 K) was 186.99 ± 1.1 J/K/mol, the “molar heat capacity at constant pressure” value (160.4 K) was 189.18 ± 1.2 J/K/mol and the “molar heat capacity at constant pressure” value (163.4 K) was 191.95 ± 1.2 J/K/mol. The “molar heat capacity at constant pressure” value (166.3 K) was 194.11 ± 1.2 J/K/mol, the “molar heat capacity at constant pressure” value (169.1 K) was 197.21 ± 1.2 J/K/mol and the “molar heat capacity at constant pressure” value (172 K) was 199.98 ± 1.2 J/K/mol. For the same compound, the “molar heat capacity at constant pressure” value (174.9 K) was 202.6 ± 1.2 J/K/mol, the “molar heat capacity at constant pressure” value (177.8 K) was 204.53 ± 1.3 J/K/mol and the “molar heat capacity at constant pressure” value (180.6 K) was 207.13 ± 1.3 J/K/mol. For the same compound, the “molar heat capacity at constant pressure” value (184.7 K) was 211.18 ± 1.3 J/K/mol, the “molar heat capacity at constant pressure” value (188.6 K) was 214.68 ± 1.3 J/K/mol and the “molar heat capacity at constant pressure” value (191.5 K) was 216.93 ± 1.3 J/K/mol. For the same compound, the “molar heat capacity at constant pressure” value (194.4 K) was 219.24 ± 1.4 J/K/mol, the “molar heat capacity at constant pressure” value (197.2 K) was 221.9 ± 1.4 J/K/mol and the “molar heat capacity at constant pressure” value (200.2 K) was 224.02 ± 1.4 J/K/mol. The “molar heat capacity at constant pressure” value (203.1 K) was 226.01 ± 1.4 J/K/mol, the “molar heat capacity at constant pressure” value (206 K) was 228.46 ± 1.4 J/K/mol and the “molar heat capacity at constant pressure” value (208.9 K) was 231.14 ± 1.4 J/K/mol. For the same compound, the “molar heat capacity at constant pressure” value (211.8 K) was 233.77 ± 1.4 J/K/mol, the “molar heat capacity at constant pressure” value (214.6 K) was 235.99 ± 1.4 J/K/mol and the “molar heat capacity at constant pressure” value (217.5 K) was 238.64 ± 1.5 J/K/mol. The “molar heat capacity at constant pressure” value (220.5 K) was 240.68 ± 1.5 J/K/mol, the “molar heat capacity at constant pressure” value (223.4 K) was 243.49 ± 1.5 J/K/mol and the “molar heat capacity at constant pressure” value (226.3 K) was 245.79 ± 1.5 J/K/mol. The “molar heat capacity at constant pressure” value (229.1 K) was 248.3 ± 1.5 J/K/mol, the “molar heat capacity at constant pressure” value (232 K) was 250.4 ± 1.5 J/K/mol and the “molar heat capacity at constant pressure” value (235 K) was 253.03 ± 1.6 J/K/mol. The “molar heat capacity at constant pressure” value (238 K) was 255.71 ± 1.6 J/K/mol, the “molar heat capacity at constant pressure” value (242.6 K) was 259.3 ± 1.6 J/K/mol and the “molar heat capacity at constant pressure” value (245.5 K) was 262.07 ± 1.6 J/K/mol. For the same compound, the “molar heat capacity at constant pressure” value (248.3 K) was 264.47 ± 1.6 J/K/mol, the “molar heat capacity at constant pressure” value (251.2 K) was 266.71 ± 1.6 J/K/mol and the “molar heat capacity at constant pressure” value (254.2 K) was 269.22 ± 1.6 J/K/mol. The “molar heat capacity at constant pressure” value (257 K) was 270.83 ± 1.7 J/K/mol, the “molar heat capacity at constant pressure” value (259.8 K) was 272.78 ± 1.7 J/K/mol and the “molar heat capacity at constant pressure” value (262.7 K) was 276.16 ± 1.7 J/K/mol. For the same compound, the “molar heat capacity at constant pressure” value (265.6 K) was 277.74 ± 1.7 J/K/mol, the “molar heat capacity at constant pressure” value (268.6 K) was 279.79 ± 1.7 J/K/mol and the “molar heat capacity at constant pressure” value (271.6 K) was 282.06 ± 1.7 J/K/mol. The “molar heat capacity at constant pressure” value (274.5 K) was 284.16 ± 1.7 J/K/mol, the “molar heat capacity at constant pressure” value (277.5 K) was 286.12 ± 1.8 J/K/mol and the “molar heat capacity at constant pressure” value (280.4 K) was 288.42 ± 1.8 J/K/mol. The “molar heat capacity at constant pressure” value (283.3 K) was 290.79 ± 1.8 J/K/mol, the “molar heat capacity at constant pressure” value (286.3 K) was 292.92 ± 1.8 J/K/mol and the “molar heat capacity at constant pressure” value (289.2 K) was 295.05 ± 1.8 J/K/mol. For the same compound, the “molar heat capacity at constant pressure” value (292 K) was 297.35 ± 1.8 J/K/mol, the “molar heat capacity at constant pressure” value (294.9 K) was 299.58 ± 1.8 J/K/mol and the “molar heat capacity at constant pressure” value (297.9 K) was 301.75 ± 1.8 J/K/mol. For the same compound, the “molar heat capacity at constant pressure” value (300.8 K) was 303.71 ± 1.9 J/K/mol, the “molar heat capacity at constant pressure” value (303.6 K) was 305.99 ± 1.9 J/K/mol and the “molar heat capacity at constant pressure” value (306.5 K) was 308.5 ± 1.9 J/K/mol. For the same compound, the “molar heat capacity at constant pressure” value (309.3 K) was 310.54 ± 1.9 J/K/mol, the “molar heat capacity at constant pressure” value (312.2 K) was 312.73 ± 1.9 J/K/mol and the “molar heat capacity at constant pressure” value (315.2 K) was 314.63 ± 1.9 J/K/mol. For the same compound, the “molar heat capacity at constant pressure” value (318.2 K) was 316.73 ± 1.9 J/K/mol, the “molar heat capacity at constant pressure” value (321.2 K) was 318.3 ± 1.9 J/K/mol and the “molar heat capacity at constant pressure” value (324.1 K) was 320.78 ± 2 J/K/mol. For the same compound, the “molar heat capacity at constant pressure” value (327 K) was 322.91 ± 2 J/K/mol, the “molar heat capacity at constant pressure” value (330 K) was 325.19 ± 2 J/K/mol and the “molar heat capacity at constant pressure” value (332.9 K) was 327.09 ± 2 J/K/mol. For the same compound, the “molar heat capacity at constant pressure” value (335.9 K) was 329.01 ± 2 J/K/mol, the “molar heat capacity at constant pressure” value (338.7 K) was 330.94 ± 2 J/K/mol and the “molar heat capacity at constant pressure” value (341.6 K) was 333.36 ± 2 J/K/mol. The “molar heat capacity at constant pressure” value (344.6 K) was 335.34 ± 2 J/K/mol, the “molar heat capacity at constant pressure” value (347.5 K) was 337.3 ± 2.1 J/K/mol and the “molar heat capacity at constant pressure” value (350.3 K) was 339.28 ± 2.1 J/K/mol. The “molar heat capacity at constant pressure” value (353.2 K) was 340.83 ± 2.1 J/K/mol, the “molar heat capacity at constant pressure” value (356.2 K) was 342.81 ± 2.1 J/K/mol and the “molar heat capacity at constant pressure” value (359 K) was 344.74 ± 2.1 J/K/mol. The “molar heat capacity at constant pressure” value (361.9 K) was 346.43 ± 2.1 J/K/mol, the “molar heat capacity at constant pressure” value (364.8 K) was 348.25 ± 2.1 J/K/mol and the “molar heat capacity at constant pressure” value (367.6 K) was 350.41 ± 2.1 J/K/mol. For the same compound, the “molar heat capacity at constant pressure” value (370.5 K) was 352.35 ± 2.1 J/K/mol, the “molar heat capacity at constant pressure” value (373.5 K) was 354.08 ± 2.2 J/K/mol and the “molar heat capacity at constant pressure” value (376.4 K) was 355.62 ± 2.2 J/K/mol. The “molar heat capacity at constant pressure” value (379.4 K) was 358.05 ± 2.2 J/K/mol, the “molar heat capacity at constant pressure” value (382.4 K) was 359.77 ± 2.2 J/K/mol and the “molar heat capacity at constant pressure” value (385.3 K) was 361.34 ± 2.2 J/K/mol. For the same compound, the “molar heat capacity at constant pressure” value (388.3 K) was 363.44 ± 2.2 J/K/mol, the “molar heat capacity at constant pressure” value (390.7 K) was 364.99 ± 2.2 J/K/mol and the “molar heat capacity at constant pressure” value (393 K) was 366.42 ± 2.2 J/K/mol. For the same compound, the “molar heat capacity at constant pressure” value (395.9 K) was 368.64 ± 2.2 J/K/mol, the “molar heat capacity at constant pressure” value (398.9 K) was 370.39 ± 2.3 J/K/mol and the “molar heat capacity at constant pressure” value (401.9 K) was 371.91 ± 2.3 J/K/mol.
